Laboratory results taken from ChEMBL document CHEMBL1201862, “PubChem BioAssay data set” (2004).
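How tested: cells in 96-well plates exposed to compound for 48 hours at five concentrations. The concentration for 50% growth inhibition is given as GI50.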 The source made the active and inactive calls. Cut-off read from the data, not from the text of the source: active = GI50 up to about 1.1 µM and inactive = higher.

Key:
Experiment in all cases: DTP human tumour cell line panel, 48 h
A549 = tested on: A549
BT-549 = tested on: BT-549
DU-145 = tested on: DU-145
EKVX = tested on: EKVX
HCT-116 = tested on: HCT-116
HL-60 = tested on: HL-60
LOX IMVI = tested on: LOX IMVI
MDA-MB-435 = tested on: MDA-MB-435
NCI-H460 = tested on: NCI-H460
OVCAR-3 = tested on: OVCAR-3
OVCAR-4 = tested on: OVCAR-4
OVCAR-5 = tested on: OVCAR-5
OVCAR-8 = tested on: OVCAR-8
RPMI-8226 = tested on: RPMI-8226
RXF 393 = tested on: RXF 393
SF-295 = tested on: SF-295
SK-MEL-28 = tested on: SK-MEL-28
SK-OV-3 = tested on: SK-OV-3
SW-620 = tested on: SW-620
UO-31 = tested on: UO-31

SMILES | GI50 (A549) | GI50 (BT-549) | GI50 (DU-145) | GI50 (EKVX) | GI50 (HCT-116) | GI50 (HL-60) | GI50 (LOX IMVI) | GI50 (MDA-MB-435) | GI50 (NCI-H460) | GI50 (OVCAR-3) | GI50 (OVCAR-4) | GI50 (OVCAR-5) | GI50 (OVCAR-8) | GI50 (RPMI-8226) | GI50 (RXF 393) | GI50 (SF-295) | GI50 (SK-MEL-28) | GI50 (SK-OV-3) | GI50 (SW-620) | GI50 (UO-31)
O=C1CCCc2c1c1c(n2Cc2ccccc2)-c2ccccc2C1=O | 23 µM (inactive) | 22.8 µM (inactive) | 28.9 µM (inactive) | 27.7 µM (inactive) | 14.4 µM (inactive) | 23.9 µM (inactive) | 17.9 µM (inactive) | 18.4 µM (inactive) | 25.8 µM (inactive) | 16 µM (inactive) | 14 µM (inactive) | 32.1 µM (inactive) | 16.4 µM (inactive) | 3.14 µM (inactive) | 29.9 µM (inactive) | 15.7 µM (inactive) | 33.3 µM (inactive) | 18.8 µM (inactive) | 32.3 µM (inactive) | 23.7 µM (inactive)
COc1cc2cc(C(=O)N3CC(CCl)c4ccc(N(C)C)cc43)[nH]c2c(OC)c1OC (stereo not given) | 0.0194 µM (active) | 0.131 µM (active) | 0.0333 µM (active) | 0.173 µM (active) | 0.0542 µM (active) | 0.0277 µM (active) | 0.0755 µM (active) | 0.168 µM (active) | 0.0269 µM (active) | 0.0959 µM (active) | 0.124 µM (active) | 0.0853 µM (active) | 0.0989 µM (active) | 0.043 µM (active) | 0.0267 µM (active) | 0.0589 µM (active) | 0.0556 µM (active) | 0.261 µM (active) | 0.12 µM (active) | 0.0381 µM (active)
COc1cc(CC(C)C(C)Cc2ccc(O)c(OC)c2)ccc1O (stereo not given) [DIHYDROGUAIARETIC ACID] | 14.5 µM (inactive) | 15.1 µM (inactive) | 22.3 µM (inactive) | 15.5 µM (inactive) | 17.4 µM (inactive) | 9.4 µM (inactive) | 11.5 µM (inactive) | 13 µM (inactive) | 14.5 µM (inactive) | 16 µM (inactive) | 20.1 µM (inactive) | > 50 µM (inactive) | 15.6 µM (inactive) | 7.93 µM (inactive) | 13.1 µM (inactive) | 17.2 µM (inactive) | 21 µM (inactive) | 20.9 µM (inactive) | 18.2 µM (inactive) | 12.7 µM (inactive)
